Experimental data published in publication PMC2834666, “An enhancer peptide for membrane-disrupting antimicrobial peptides” (BMC Microbiology, 2010).
In brackets after ≈: the same amount, converted by molar mass. Bridge positions count the residues as written; N and C are the ends. Square brackets hold non-standard residues; d marks the D form. Peptide text beside a SMILES is read from it. * marks the point of attachment. X1 = CC[C@H](C)CCCCC(=O)*; Dab = NCC[C@H](N)C(=O)O

Tests used:
Assay type in all cases: cell-based
[1] = test system: Staphylococcus aureus IFO12732; experiment: microbe, parasite or virus in culture; conditions: 10 mM Tris/HCl pH 7.5, 2 h incubation, colony count; for MBC: Staphylococcus aureus, IFO12732
Protocol: (§1) Microbicidal assay was performed as previously described. Briefly, each microbial strain in the mid-exponential phase was suspended in 10 mM Tris/HCl, pH 7.5. The microbial suspension was mixed with antimicrobials in the presence or absense of NP4P. After 2 h incubation, the suspension was diluted 1,000 times and inoculated on to plates of IFO702 medium. The number of colonies were counted, and a plot of peptide concentration vs colony number was created.

Escherichia coli JM109 = conditions: for MBC, NP4P-: absence of NP4P, 10 mM Tris/HCl pH 7.5, 2 h incubation, colony count
Protocol: Microbicidal assay was performed as previously described. […] The microbial suspension was mixed with antimicrobials in the presence or absense of NP4P. After 2 h incubation, the suspension was diluted 1,000 times and inoculated on to plates of IFO702 medium. The number of colonies were counted, and a plot of peptide concentration vs colony number was created.

[2] = test system: Pseudomonas aeruginosa IFO3899; conditions: absence of NP4P; 10 mM Tris/HCl pH 7.5, 2 h incubation, colony count
Protocol: as §1

[3] = test system: Salmonella typhimurium IFO13245; conditions: absence of NP4P; 10 mM Tris/HCl pH 7.5, 2 h incubation, colony count
Protocol: as §1

[4] = test system: Serratia marcescens IFO3736; conditions: absence of NP4P; 10 mM Tris/HCl pH 7.5, 2 h incubation, colony count
Protocol: as §1

Row | Compound | MBC ([1]; absence of NP4P) [µg/mL] | MBC ([1]; presence of 20 μg/mL NP4P) [µg/mL] | MBC, NP4P- ([1]; absence of NP4P) [µg/mL] | MBC, NP4P- (Escherichia coli JM109) [µg/mL] | further results
1 | CC1(C)S[C@@H]2[C@H](NC(=O)[C@H](N)c3ccccc3)C(=O)N2[C@H]1C(=O)O [Ampicillin] | 250 (≈ 715 µM) | 250 | – | – | –
2 | CCN1CCN(c2cc3c(cc2F)c(=O)c(C(=O)O)cn3C2CC2)CC1 [Enrofloxacin] | 0.25 (≈ 0.696 µM) | 0.25 | – | – | –
3 | CC[C@H](C)[C@H](N)C(=O)N[C@@H](CC(C)C)C(=O)N1CCC[C@H]1C(=O)N[C@@H](Cc1c[nH]c2ccccc12)C(=O)N[C@@H](CCCCN)C(=O)N[C@@H](Cc1c[nH]c2ccccc12)C(=O)N1CCC[C@H]1C(=O)N[C@@H](Cc1c[nH]c2ccccc12)C(=O)N[C@@H](Cc1c[nH]c2ccccc12)C(=O)N1CCC[C@H]1C(=O)N[C@@H](Cc1c[nH]c2ccccc12)C(=O)N[C@@H](CCCNC(=N)N)C(=O)N[C@@H](CCCNC(=N)N)C(N)=O [Indolicidin] | – | – | 10 (≈ 5.25 µM) | 10 (≈ 5.25 µM) | –
4 | NC[C@H]1O[C@H](O[C@H]2[C@H](O)[C@@H](O[C@H]3O[C@H](CO)[C@@H](O)[C@H](N)[C@H]3O)[C@H](N)C[C@@H]2N)[C@H](O)[C@@H](O)[C@@H]1O [Kanamycin] | – | – | 3 (≈ 6.19 µM) | – | MBC, NP4P+ ([1]; presence of 20 μg/mL NP4P): 3 µg/mL
5 | CC[C@H](C)CCCCC(=O)N[C@@H](CCN)C(=O)N[C@H](C(=O)N[C@@H](CCN)C(=O)N[C@H]1CCNC(=O)[C@H]([C@@H](C)O)NC(=O)[C@H](CCN)NC(=O)[C@H](CCN)NC(=O)[C@H](CC(C)C)NC(=O)[C@@H](Cc2ccccc2)NC(=O)[C@H](CCN)NC1=O)[C@@H](C)O [Polymyxin B] (X1-[Dab]T[Dab][Dab][Dab][dF]L[Dab][Dab]T; lactam 4-C (inferred); N-terminus assumed) | – | – | – | 3 (≈ 2.49 µM) | shift of bactericidal dose-effect curve to lower concentration (Escherichia coli JM109; in the presence of 100 μg/mL NP4P, 10 mM Tris-HCl, pH 7.4): ~10 times lower concentration; MBC, NP4P- [2]: 5 µg/mL (≈ 4.15 µM); MBC, NP4P- [3]: 5 µg/mL (≈ 4.15 µM); MBC, NP4P- [4]: 5 µg/mL (≈ 4.15 µM)
